Data as given in patent US12599136B2, “Substituted isophthalic acid diamides and their use as herbicides” (Bayer Aktiengesellschaft, priority 2020, dated 2026).

How the values were obtained:
Format in all cases: in vivo
Setaria viridis [1] = test: Post-emergence herbicidal action against SETVI; settings: visual assessment about 3 weeks after treatment
In short: (§1)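 Sandy loam, greenhouse; treatment 2–3 weeks after sowing, one-leaf stage. Aqueous suspension or emulsion from WP/EC sprayed on foliage (600–800 l/ha, 0.2% wetting agent). Readout: visual % action, ~3 weeks.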

Setaria viridis [2] = test: Pre-emergence herbicidal action against SETVI; settings: 80 g/ha
In short: (§2)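 Seeds sown in sandy loam, soil-covered; compound sprayed on soil surface pre-emergence. Application: WP/EC, 600–800 l/ha, 0.2% wetting agent. Readout: visual % damage at 3 weeks.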

Viola tricolor [3] = test: Post-emergence herbicidal action against VIOTR
In short: as §1

Amaranthus retroflexus [4] = test: Pre-emergence herbicidal action against AMARE; settings: visual score after 3 weeks vs untreated controls
In short: as §2

Digitaria sanguinalis [5] = test: Pre-emergence herbicidal action against DIGSA; settings: 80 g/ha
In short: as §2

Digitaria sanguinalis [6] = test: Post-emergence herbicidal action against DIGSA; settings: 20 g/ha
Procedure: Seeds of monocotyledonous and dicotyledonous weed and crop plants are laid out in sandy loam soil in wood-fiber pots, covered with soil and cultivated in a greenhouse under good growth conditions. 2 to 3 weeks after sowing, the test plants are treated at the one-leaf stage. The compounds of the invention, formulated in the form of wettable powders (WP) or as emulsion concentrates (EC), are then sprayed onto the green parts of the plants in the form of an aqueous suspension or emulsion at a water application rate equivalent to 600 to 800 l/ha, with addition of 0.2% wetting agent. After the test plants have been left to stand in the greenhouse under optimal growth conditions for about 3 weeks, the action of the preparations is assessed visually in comparison to untreated controls (herbicidal action in percent (%): 100% activity=the plants have died, 0% activity=like control plants). […] The tables below illustrate, in an illustrative manner, the post-emergence herbicidal action of the compounds of the invention, the herbicidal activity being stated in percent.

Alopecurus myosuroides [7] = test: Pre-emergence herbicidal action against ALOMY; settings: visual score after 3 weeks vs untreated controls
In short: as §2

Matricaria inodora [8] = test: Pre-emergence herbicidal action against MATIN; settings: visual score after 3 weeks vs untreated controls
In short: as §2

Viola tricolor [9] = test: Pre-emergence herbicidal action against VIOTR
In short: as §2

Veronica persica [10] = test: Pre-emergence herbicidal action against VERPE
In short: as §2

Abutilon theophrasti [11] = test: Post-emergence herbicidal action against ABUTH
In short: as §1

Abutilon theophrasti [12] = test: Pre-emergence herbicidal action against ABUTH; settings: visual score after 3 weeks vs untreated controls
In short: as §2

Pharbitis purpurea = test: Post-emergence herbicidal action against PHBPU; settings: 20 g/ha, visual assessment about 3 weeks after treatment
In short: as §1

Matricaria inodora [13] = test: Post-emergence herbicidal action against MATIN; settings: visual assessment about 3 weeks after treatment
In short: as §1

Echinochloa crus-galli [14] = test: Pre-emergence herbicidal action against ECHCG; settings: 80 g/ha; visual score after 3 weeks vs untreated controls
In short: as §2

Veronica persica [15] = test: Post-emergence herbicidal action against VERPE; settings: visual assessment about 3 weeks after treatment
In short: as §1

Lolium rigidum = test: Pre-emergence herbicidal action against LOLRI; settings: 80 g/ha
Excerpt: (§3) Seeds of monocotyledonous and dicotyledonous weed plants and crop plants are laid out in sandy loam soil in wood-fiber pots and covered with soil. The compounds of the invention, formulated in the form of wettable powders (WP) or as emulsion concentrates (EC), are then applied to the surface of the covering soil in the form of an aqueous suspension or emulsion at a water application rate equivalent to 600 to 800 l/ha, with addition of 0.2% wetting agent. After the treatment, the pots are placed in a greenhouse and kept under good growth conditions for the trial plants. The damage to the test plants is scored visually after a test period of 3 weeks by comparison with untreated controls (herbicidal activity in percent (%): 100% activity=the plants have died, 0% activity=like control plants). […] The tables below illustrate, in an illustrative manner, the post-emergence herbicidal action of the compounds of the invention, the herbicidal activity being stated in percent.

Polygonum convolvulus = test: Pre-emergence herbicidal action against POLCO; settings: 80 g/ha
Excerpt: as §3

Echinochloa crus-galli [16] = test: Post-emergence herbicidal action against ECHCG; settings: visual assessment about 3 weeks after treatment
In short: as §1

Avena fatua [17] = test: Post-emergence herbicidal action against AVEFA; settings: 20 g/ha, visual assessment about 3 weeks after treatment
In short: as §1

Amaranthus retroflexus [18] = test: Post-emergence herbicidal action against AMARE; settings: visual assessment about 3 weeks after treatment
In short: as §1

Avena fatua [19] = test: Pre-emergence herbicidal action against AVEFA; settings: 80 g/ha; visual score after 3 weeks vs untreated controls
Excerpt: as §3

Alopecurus myosuroides [20] = test: Post-emergence herbicidal action against ALOMY
In short: as §1

Row | SMILES | Post-emergence action against SETVI in % (Setaria viridis [1]; 20 g/ha) | Pre-emergence action against SETVI (Setaria viridis [2]) | Post-emergence action against VIOTR in % (Viola tricolor [3]; 20 g/ha) | Pre-emergence action against AMARE (Amaranthus retroflexus [4]; 20 g/ha) | Pre-emergence action against AMARE (Amaranthus retroflexus [4]; 80 g/ha) | Pre-emergence action against ALOMY (Alopecurus myosuroides [7]; 80 g/ha) | Pre-emergence action against MATIN (Matricaria inodora [8]; 80 g/ha) | Pre-emergence action against VIOTR (Viola tricolor [9]; 80 g/ha) | Pre-emergence action against VERPE (Veronica persica [10]; 80 g/ha) | Post-emergence action against ABUTH (Abutilon theophrasti [11]; 5 g/ha) | Post-emergence action against ABUTH (Abutilon theophrasti [11]; 20 g/ha) | Pre-emergence action against ABUTH (Abutilon theophrasti [12]; 80 g/ha) | Post-emergence action against PHBPU in % (Pharbitis purpurea) | Post-emergence action against MATIN in % (Matricaria inodora [13]; 20 g/ha) | Pre-emergence action against ECHCG (Echinochloa crus-galli [14]) | Post-emergence action against VERPE in % (Veronica persica [15]; 20 g/ha) | Pre-emergence action against LOLRI (Lolium rigidum) | Pre-emergence action against MATIN (Matricaria inodora [8]; 20 g/ha) | Post-emergence action against ECHCG in % (Echinochloa crus-galli [16]; 20 g/ha) | Post-emergence action against AMARE in % (Amaranthus retroflexus [18]; 5 g/ha) | other results
1 | CCN(C)C(=O)c1c(C(F)(F)F)ccc(C(=O)Nc2nnnn2C)c1C [Example 1-20, N^3-ethyl-N^3-2-dimethyl-N^1-(1-methyl-1H-tetrazol-5-yl)-4-(trifluoromethyl)isophthalamide] | 80% | 100% | 90% | 80% | 90% | 90% | 100% | 100% | 80% | 80% | 90% | 100% | 90% |  |  |  |  |  |  |  | Pre-emergence action against DIGSA (Digitaria sanguinalis [5]): 90%; Post-emergence action against DIGSA in % (Digitaria sanguinalis [6]): 80%
2 | CCn1nnnc1NC(=O)c1ccc(C(F)F)c(C(=O)N(C)CC(F)F)c1Cl [Example 2-159] | 90% | 100% | 90% | 100% | 100% | 100% | 100% | 100% | 80% | 80% | 90% | 100% |  | 90% | 90% | 80% | 90% | 90% | 90% | 100% | Post-emergence action against MATIN in % (Matricaria inodora [13]; 5 g/ha): 80%; Post-emergence action against VIOTR in % (Viola tricolor [3]; 5 g/ha): 80%; Pre-emergence action against POLCO (Polygonum convolvulus): 90%; Post-emergence action against AVEFA in % (Avena fatua [17]): 90%; Post-emergence action against AMARE in % (Amaranthus retroflexus [18]; 20 g/ha): 100%; Pre-emergence action against AVEFA (Avena fatua [19]): 90%; Pre-emergence action against ABUTH (Abutilon theophrasti [12]; 20 g/ha): 100%
3 | CN(CC(F)F)C(=O)c1c(C(F)F)ccc(C(=O)Nc2nnnn2C)c1Cl [Example 1-159] | 100% | 100% | 90% | 100% | 100% | 90% | 100% | 100% | 100% | 90% | 90% | 100% | 90% | 90% | 100% | 90% | 80% | 90% | 90% | 100% | Post-emergence action against MATIN in % (Matricaria inodora [13]; 5 g/ha): 80%; Post-emergence action against SETVI in % (Setaria viridis [1]; 5 g/ha): 100%; Post-emergence action against VERPE in % (Veronica persica [15]; 5 g/ha): 80%; Post-emergence action against VIOTR in % (Viola tricolor [3]; 5 g/ha): 80%; Pre-emergence action against POLCO (Polygonum convolvulus): 80%; Pre-emergence action against ALOMY (Alopecurus myosuroides [7]; 20 g/ha): 90%; Post-emergence action against ALOMY (Alopecurus myosuroides [20]; 5 g/ha): 90%; Post-emergence action against ALOMY (Alopecurus myosuroides [20]; 20 g/ha): 90%; Post-emergence action against ECHCG in % (Echinochloa crus-galli [16]; 5 g/ha): 80%; Pre-emergence action against VERPE (Veronica persica [10]; 20 g/ha): 90%; Post-emergence action against AMARE in % (Amaranthus retroflexus [18]; 20 g/ha): 100%; Pre-emergence action against AVEFA (Avena fatua [19]): 80%; Pre-emergence action against ABUTH (Abutilon theophrasti [12]; 20 g/ha): 100%
4 | CCN(C(=O)c1c(C(F)F)ccc(C(=O)Nc2nnnn2CC)c1Cl)C1CC1 [Example 2-167] | 90% | 100% | 100% | 100% | 100% | 100% | 100% | 100% |  | 90% | 90% | 100% | 90% | 80% | 90% | 80% | 80% | 100% | 90% | 100% | Post-emergence action against SETVI in % (Setaria viridis [1]; 5 g/ha): 90%; Post-emergence action against ALOMY (Alopecurus myosuroides [20]; 5 g/ha): 80%; Post-emergence action against ALOMY (Alopecurus myosuroides [20]; 20 g/ha): 100%; Post-emergence action against AVEFA in % (Avena fatua [17]): 80%; Pre-emergence action against VIOTR (Viola tricolor [9]; 20 g/ha): 80%; Post-emergence action against AMARE in % (Amaranthus retroflexus [18]; 20 g/ha): 100%; Pre-emergence action against ABUTH (Abutilon theophrasti [12]; 20 g/ha): 100%
